Experimental data from BindingDB's records for doi:10.1016/j.bmcl.2004.07.091 (Keio University, 2004).

These molecules were tested against beta-glucosidase (Rattus norvegicus) (assay: Inhibition of Beta-glucosidase of rat intestine; no inhibition).

IC50, > 1000 µM:
C=C1CC(NCCCCCCCC)C(O)C(O)C1O (stereo unspecified) [4-Methylene-6-octylamino-cyclohexane-1,2,3-triol]
CO[C@@H]1CC2COC(C1O)[C@H]2NC1CC(CO)C(O)C(O)C1O (stereo partly drawn) [4-((3R,8S)-4-Hydroxy-3-methoxy-6-oxa-bicyclo[3.2.1]oct-8-ylamino)-6-hydroxymethyl-cyclohexane-1,2,3-triol]
CCCCCCCCNC1CC(CO)C(O)C(O)C1O (stereo unspecified) [4-Hydroxymethyl-6-octylamino-cyclohexane-1,2,3-triol]

Each molecule was assayed against T1, Beta-galactosidase (Bos taurus, UniProt Q58D55) (assay: Inhibition of Beta-galactosidase of bovine liver; no inhibition).
T1 sequence (Q58D55 whole entry): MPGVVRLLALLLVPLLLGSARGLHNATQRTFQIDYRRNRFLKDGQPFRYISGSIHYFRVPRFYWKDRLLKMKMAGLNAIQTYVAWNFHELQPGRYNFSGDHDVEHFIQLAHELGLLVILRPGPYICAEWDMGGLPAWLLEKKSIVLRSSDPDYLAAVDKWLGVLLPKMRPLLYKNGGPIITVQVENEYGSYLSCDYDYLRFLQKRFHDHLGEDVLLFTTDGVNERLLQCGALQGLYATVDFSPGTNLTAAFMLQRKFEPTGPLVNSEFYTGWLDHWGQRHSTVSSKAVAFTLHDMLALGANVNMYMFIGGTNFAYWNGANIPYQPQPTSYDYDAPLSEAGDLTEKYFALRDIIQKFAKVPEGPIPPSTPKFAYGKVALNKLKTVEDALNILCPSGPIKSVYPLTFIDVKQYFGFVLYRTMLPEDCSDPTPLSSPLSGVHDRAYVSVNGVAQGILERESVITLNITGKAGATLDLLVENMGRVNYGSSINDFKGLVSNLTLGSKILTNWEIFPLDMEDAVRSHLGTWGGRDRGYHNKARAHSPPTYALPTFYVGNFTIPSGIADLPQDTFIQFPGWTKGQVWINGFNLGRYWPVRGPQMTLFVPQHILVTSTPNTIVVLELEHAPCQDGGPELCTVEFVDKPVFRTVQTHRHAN

IC50, > 1000 µM:
CC(=O)NC1CC(CO)C(O)C(O)C1O (stereo unspecified) [N-(2,3,4-Trihydroxy-5-hydroxymethyl-cyclohexyl)-acetamide]
CO[C@@H]1CC2COC(C1O)[C@H]2NC1CC(CO)C(O)C(O)C1O (stereo partly drawn) [4-((3R,8S)-4-Hydroxy-3-methoxy-6-oxa-bicyclo[3.2.1]oct-8-ylamino)-6-hydroxymethyl-cyclohexane-1,2,3-triol]
N[C@H]1C[C@H](CO)[C@@H](O)[C@H](O)[C@H]1O
